Measurements reported in ChEMBL document CHEMBL5303304, “EUbOPEN Chemogenomics Library - IncuCyte” (2023).

Tests used:
Type in all cases: toxicity, cell-based
Fibroblast = test: Incucyte cell viability with human fibroblast; settings: 10 µM, compound concentration 10 uM
U2OS = test: Incucyte cell viability with U2OS; settings: human, 10 µM, compound concentration 10 uM
HEK-293T = test: Incucyte cell viability with HEK293T; settings: human, 10 µM, compound concentration 10 uM
Also: unitless GR value; below 1 slowed growth and below 0 cell loss.

With `O=C(Nc1ccccc1C(=O)O)c1cc(S(=O)(=O)c2ccccc2)ccc1Cl` the “Growth Rate” value (Fibroblast; 0 h, replicate number 2) was -0.73, the “Growth Rate” value (U2OS; 0 h, replicate number 2) was 0.97 and the “Growth Rate” value (U2OS; 12 h, replicate number 2) was 0.55. For the same molecule, the “Growth Rate” value (U2OS; 18 h, replicate number 1) was 0.96, the “Growth Rate” value (U2OS; 18 h, replicate number 2) was 0.65 and the “Growth Rate” value (U2OS; 24 h, replicate number 1) was 0.79. For the same molecule, the “Growth Rate” value (U2OS; 24 h, replicate number 2) was 0.8, the “Growth Rate” value (HEK-293T; 0 h, replicate number 1) was -0.5 and the “Growth Rate” value (HEK-293T; 0 h, replicate number 2) was -0.73. The “Growth Rate” value (HEK-293T; 6 h, replicate number 1) was 0.7, the “Growth Rate” value (HEK-293T; 12 h, replicate number 1) was 0.52 and the “Growth Rate” value (HEK-293T; 12 h, replicate number 2) was 0.88. The “Growth Rate” value (HEK-293T; 18 h, replicate number 1) was 0.3, the “Growth Rate” value (HEK-293T; 18 h, replicate number 2) was 0.41 and the “Growth Rate” value (HEK-293T; 24 h, replicate number 1) was 0.24. The “Growth Rate” value (HEK-293T; 24 h, replicate number 2) was 0.34.
`CC(C(=O)Nc1cc(C#N)ccc1CCCC(=O)O)c1ccc(F)c2ccccc12` (configuration not stated) was tested, and the “Growth Rate” value (Fibroblast; 0 h, replicate number 2) was -0.98, the “Growth Rate” value (Fibroblast; 24 h, replicate number 2) was 0.93 and the “Growth Rate” value (U2OS; 0 h, replicate number 1) was 0. The “Growth Rate” value (U2OS; 6 h, replicate number 1) was 0.47, the “Growth Rate” value (U2OS; 12 h, replicate number 1) was 0.72 and the “Growth Rate” value (U2OS; 18 h, replicate number 1) was 0.92. For the same molecule, the “Growth Rate” value (U2OS; 24 h, replicate number 1) was 0.78, the “Growth Rate” value (HEK-293T; 0 h, replicate number 1) was 0.5 and the “Growth Rate” value (HEK-293T; 0 h, replicate number 2) was 0.28.
In the case of `C1=Cc2ccccc2C(=C2CCN(CCCCc3nn[nH]n3)CC2)c2ccccc21`, the “Growth Rate” value (Fibroblast; 0 h, replicate number 2) is reported as -0.99, the “Growth Rate” value (U2OS; 6 h, replicate number 1) is reported as 0.4 and the “Growth Rate” value (U2OS; 24 h, replicate number 1) is reported as 0.89. The “Growth Rate” value (HEK-293T; 0 h, replicate number 1) was 0.42, the “Growth Rate” value (HEK-293T; 6 h, replicate number 1) was 0.94 and the “Growth Rate” value (HEK-293T; 6 h, replicate number 2) was 0.78. For the same molecule, the “Growth Rate” value (HEK-293T; 12 h, replicate number 2) was 0.94 and the “Growth Rate” value (HEK-293T; 18 h, replicate number 1) was 0.91.
In the case of `Cc1nsc(Nc2cnc(C(F)(F)F)cn2)c1C(=O)Nc1ccc(O[C@H]2CCCN(CC(F)(F)F)C2)nc1`, the “Growth Rate” value (Fibroblast; 0 h, replicate number 1) is reported as -1, the “Growth Rate” value (Fibroblast; 6 h, replicate number 1) is reported as -0.21 and the “Growth Rate” value (Fibroblast; 6 h, replicate number 2) is reported as -0.93. The “Growth Rate” value (Fibroblast; 12 h, replicate number 1) was -0.43, the “Growth Rate” value (Fibroblast; 18 h, replicate number 1) was -0.36 and the “Growth Rate” value (Fibroblast; 18 h, replicate number 2) was -0.45. For the same molecule, the “Growth Rate” value (Fibroblast; 24 h, replicate number 1) was -0.23, the “Growth Rate” value (Fibroblast; 24 h, replicate number 2) was -0.3 and the “Growth Rate” value (U2OS; 0 h, replicate number 2) was 0.91. The “Growth Rate” value (U2OS; 6 h, replicate number 1) was 0.72, the “Growth Rate” value (U2OS; 6 h, replicate number 2) was 0.73 and the “Growth Rate” value (U2OS; 12 h, replicate number 1) was 0.39. The “Growth Rate” value (U2OS; 12 h, replicate number 2) was 0.59, the “Growth Rate” value (U2OS; 18 h, replicate number 1) was 0.06 and the “Growth Rate” value (U2OS; 18 h, replicate number 2) was 0.57. The “Growth Rate” value (U2OS; 24 h, replicate number 1) was 0.03, the “Growth Rate” value (U2OS; 24 h, replicate number 2) was 0.52 and the “Growth Rate” value (HEK-293T; 0 h, replicate number 1) was -0.98. For the same molecule, the “Growth Rate” value (HEK-293T; 6 h, replicate number 1) was -0.28, the “Growth Rate” value (HEK-293T; 6 h, replicate number 2) was -0.6 and the “Growth Rate” value (HEK-293T; 12 h, replicate number 1) was -0.36. The “Growth Rate” value (HEK-293T; 12 h, replicate number 2) was -0.54, the “Growth Rate” value (HEK-293T; 18 h, replicate number 1) was -0.3 and the “Growth Rate” value (HEK-293T; 18 h, replicate number 2) was -0.41. The “Growth Rate” value (HEK-293T; 24 h, replicate number 1) was -0.25 and the “Growth Rate” value (HEK-293T; 24 h, replicate number 2) was -0.32.
In the case of `C[C@H](NC(=O)c1cc(Cl)ccc1Oc1ccc(F)cc1)c1ccc(C(=O)O)cc1`, the “Growth Rate” value (Fibroblast; 0 h, replicate number 2) is reported as -0.45, the “Growth Rate” value (Fibroblast; 6 h, replicate number 1) is reported as 0.59 and the “Growth Rate” value (Fibroblast; 6 h, replicate number 2) is reported as -0.71. The “Growth Rate” value (Fibroblast; 12 h, replicate number 2) was 0.98, the “Growth Rate” value (Fibroblast; 18 h, replicate number 1) was 0.85 and the “Growth Rate” value (Fibroblast; 18 h, replicate number 2) was 0.92. For the same molecule, the “Growth Rate” value (Fibroblast; 24 h, replicate number 1) was 0.86, the “Growth Rate” value (U2OS; 6 h, replicate number 2) was 0.86 and the “Growth Rate” value (U2OS; 12 h, replicate number 1) was 0.94. The “Growth Rate” value (U2OS; 12 h, replicate number 2) was 0.8, the “Growth Rate” value (U2OS; 24 h, replicate number 2) was 0.99 and the “Growth Rate” value (HEK-293T; 0 h, replicate number 1) was -0.19. For the same molecule, the “Growth Rate” value (HEK-293T; 0 h, replicate number 2) was 0.1.
